Data from patent publication US7365080B2, “Pharmaceutical compositions comprising thieno[2,3-c]pyridine derivatives and use thereof” (Rimonyx Pharmaceuticals Ltd., priority 2003, dated 2008).

How the values were obtained:
[1] = system: MOLT-4 (Acute lymphoblastic leukemia); test: Inhibition of leukemia cell growth (SRB); assay type: cell-based; conditions: MOLT4; 10^−8-10^−4 Molar, 48 hours
Method: (§1) Each cell line (RPMI-8226 (Multiple Myeloma), MOLT-4 (Acute lymphoblastic leukemia), CCR-CEM (Human T Cell leukemia), K562 (Chronic myeloid leukemia), SR (Chronic myeloid leukemia) was pre-incubated on a microtiter plate (Monks A et al, J. Natl. Cancer Inst., 83:757-766, 1991). Inhibitor compounds were then added at different concentrations (10^−8-10^−4 Molar) and the culture incubated for 48 hours. A sulforhodamine B (SRB) protein assay was used to estimate cell viability or growth (Skehan P et al, J. Natl. Cancer Inst., 82:1107-1112, 1990). Compound no. 1 inhibited the growth of the cell lines RPMI-8226, MOLT4, CCR-CEM, K562 and SR to 100%, 100%, 100%, 100% and 93%, respectively. There was negligible cell death (less than 15%).

[2] = system: RPMI-8226 (Multiple Myeloma); test: Inhibition of leukemia cell growth (SRB); assay type: cell-based; conditions: 10^−8-10^−4 Molar, 48 hours
Method: as §1

[3] = system: SR (Chronic myeloid leukemia); test: Inhibition of leukemia cell growth (SRB); assay type: cell-based; conditions: 10^−8-10^−4 Molar, 48 hours
Method: as §1

[4] = system: CCR-CEM (Human T Cell leukemia); test: Inhibition of leukemia cell growth (SRB); assay type: cell-based; conditions: 10^−8-10^−4 Molar, 48 hours
Method: as §1

[5] = system: K562 (Chronic myeloid leukemia); test: Inhibition of leukemia cell growth (SRB); assay type: cell-based; conditions: 10^−8-10^−4 Molar, 48 hours
Method: as §1

[6] = system: Human T-lymphocytes on human endothelial cells; test: T-lymphocyte rolling on endothelial cells under shear flow; assay type: cell-based; conditions: for inhibition at 25 µM: Homo sapiens, high shear flow, read-out: inhibition of cell rolling; for % rolling: test compound (25 μM), shear flow
Method: Human T-lymphocytes were passed over a layer of human endothelial cells according to the method of Lawrence and Springer (Cell 65: 859-873, 1991). At high shear flow, migrating T-lymphocytes adhered transiently and intermittently to the endothelial cells as a consequence of HS-GAG-ECAM interaction. The resulting T-cell rolling was recorded by video camera and the number of rolling cells per defined area during a constant period of time was determined. Soluble heparin (competitor of cell surface GAGs) abolished T-cell rolling under high shear flow conditions. Compounds no. 1, 11 and 25, each at 25 μM, inhibited cell rolling by 90, 90 and 70%, respectively.

[7] = system: RPMI-8226, MOLT-4, CCR-CEM, K562, SR; test: Leukemia cell lines (SRB): cell death; assay type: cell-based; conditions: 48 hours
Method: as §1

L-Selectin = target: T1, L-Selectin (Homo sapiens, UniProt P14151); test: ELISA: inhibition of L-selectin/IgG binding to immobilized heparin (Heparin-BSA); conditions: L-Selectin binding to heparin
T1 construct: purchased Research and Development Systems 728-LS
T1 sequence (P14151 39-332 limits assumed): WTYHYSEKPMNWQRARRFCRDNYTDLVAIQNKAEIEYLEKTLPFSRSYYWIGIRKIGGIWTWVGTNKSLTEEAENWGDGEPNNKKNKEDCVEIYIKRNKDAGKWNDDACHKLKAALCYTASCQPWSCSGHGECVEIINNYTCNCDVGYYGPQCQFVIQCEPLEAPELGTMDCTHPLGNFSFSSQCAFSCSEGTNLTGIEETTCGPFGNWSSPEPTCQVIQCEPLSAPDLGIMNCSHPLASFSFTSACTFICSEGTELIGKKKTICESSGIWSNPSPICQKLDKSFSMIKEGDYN
Method: The inhibitory effect of the compounds of the present invention can be evaluated by several methods in vitro. One assay for measuring GAG-ECAM binding, exemplified herein below, detects the binding of L selectin/IgG to immobilized heparin. Another assay utilizes immobilized L-selectin, or L-selectin fused to protein domains other than IgG. The amount of bound L-selectin is determined by an ELISA assay using, for example, a monoclonal antibody raised against L-selectin, which is conjugated to horseradish peroxidase. […] The Dregg-55 antibody was also shown to inhibit L-selectin-dependent adhesion in vitro, neutrophil accumulation in vitro and inflammation in vivo (Co M. S. et al, Immunotechnology 493: 253-266, 1999).
An in vitro assay was used to assess the ability of test compounds according to formula I to inhibit the interactions of L-selectin with HS-GAGs. The assay was suitable for determining the concentration required for 50% inhibition (IC-50) for each specific compound. In the assay, the GAG used was heparin. Thus, porcine intestinal mucosa heparin conjugated to Bovine Serum Albumin (Heparin-BSA; Sigma Cat. No. H0403) at […] in Phosphate Buffered Saline (PBS; pH 6.5) was added to a 96 well polystyrene ELISA plate (NUNC Cat. No. 442404; 0.1 ml per well) and incubated Over Night (ON) at 4° C. Following the incubation, the plate was washed thoroughly, by immersion, with de-ionized water and PBS (pH 6.5). The ELISA plate was then blocked with BSA (ICN Cat. No.160069, 3%, 200 μl per well) for 1 hour at Room Temperature (RT). Following blocking, the plate was washed with de-ionized water, and then with PBS (pH 6.5) containing Tween 20 (Sigma Cat. No. P-1379, 0.05%). Compounds were synthesized or purchased from ChemDiv Labs (San Diego, Calif.), dissolved in DMSO, diluted in PBS and added to the wells at various concentrations in the range of 0.01 to 300 μM. Recombinant Human L-Selectin/IgG (Research and Development Systems Cat. No.728-LS) dissolved in PBS supplemented with BSA (0.1%) and calcium chloride (1 mM) was added to the ELISA plate (100 μl per well) and incubated for 60 minutes at RT with shaking. Following incubation, the plate was washed with de-ionized water and three times with PBS (pH 6.5) containing Tween 20. Anti-Human IgG Peroxidase Conjugate (1:5000; Sigma Product No. A8667) diluted in PBS supplemented with BSA (0.1%) and calcium chloride (1 mM) was added to the ELISA plate (100 μl per well) and incubated for 30 minutes at RT with shaking. The plate was then washed with de-ionized water and three times with PBS (pH 6.5) containing Tween 20. The peroxidase substrate cromogen, TMB (Dako Cat. No. S1599) was added (100 μl per well) to the ELISA plate and incubated at room temperature. After 15 minutes ELISA Stop Solution (hydrochloric acid 1N, sulfuric acid 3N) was added (200 μl per well) to stop the peroxidase catalyzed colorimetric reaction. The Optical Density (OD) of the samples was measured at 450 nm using an ELISA plate reader (Dynatech MR5000). Data were analyzed with Graphpad Prism software and IC-50 values were established. The P-selectin assay was carried out in a similar fashion, except that Recombinant Human P-Selectin/IgG (Research and Development Systems Cat.No.137-PS) was used.

SF-268 (glioma) = test: Inhibition of growth of cancer cell lines (alamar blue); assay type: cell-based; conditions: Homo sapiens, 48 hours
Method: (§2) Each cell line (MCF7 (Breast carcinoma), NCI-H460 (Non-small cell lung carcinoma), and SF-268 (glioma) was pre-incubated on a microtiter plate. Inhibitor compounds were then added at a concentration of 0.1 μM and the culture incubated for 48 hours. End-point determinations were made with alamar blue (Gray G D, Wickstrom E, Biotechniques 21(5) 780-782, 1996). Results for each compound are presented as the percent of growth of the treated cells as compared to the untreated cells. Compounds, which reduce the growth of any one of the cell lines to approximately 32% or less were considered suitable for further and more extensive study (Monks A et al, J. Natl. Cancer Inst., 83:757-766, 1991. Compound no. 1 inhibited the growth of the cell lines MCF7, NCI-H460, and SF-268 by 99%, 100% and 99%, respectively.

MCF7 (Breast carcinoma) = test: as above; assay type: cell-based; conditions: Homo sapiens, 48 hours
Method: as §2

[8] = system: NCI-H460 (Non-small cell lung carcinoma); test: as above; assay type: cell-based; conditions: Homo sapiens, 48 hours
Method: as §2

Mice = test: TNBS induced colitis (Inflammatory Bowel Disease model); assay type: in vivo, mouse
Method: Control mice (12 per group) were injected intraperitoneally (IP) with Test Compound (TC) Vehicle (Tween 80, 5%, 200 μl). […] The control and experimental mice were injected once per day for 7 successive days. […] 11 in the same experimental model. The compound was administered once a day for 7 days in a suspension with 0.5% methylcellulose per os. There were 12 mice per group and the control mice received 0.5% methylcellulose only. Compound no.

Lewis rats = test: Experimental Autoimmune Encephalomyelitis (MBP p87-99); assay type: in vivo, rat; conditions: intra-peritoneal once daily for 3 days, 10 and 35 mg/kg
Description: In autoimmune conditions, T cells reactive to self-antigens escape elimination in the thymus and are activated in the periphery, where they can provoke damage in specific organs. EAE, a model of autoimmune disease that is induced in Lewis rats, bears many similarities to the human disease Multiple Sclerosis (MS). T cells found in brain lesions of MS patients have TCR junctional rearrangements that are identical to T cells found in the spinal cords of Lewis rats immunized with a peptide of myelin basic protein MBP p87-99. In addition, a major T and B cell response in MS patients is directed to MBP p87-99.
EAE is induced in rats by immunization with MBP p87-99. The inhibitor Compounds are administered once daily by intra-peritoneal injection for 3 consecutive days starting 1 day before the appearance of EAE symptoms (day 12 after EAE induction). The degree of clinical disease is scored as follows: 0=no signs; 1=loss of tail tonicity; 2=paralysis of hind limbs; 3=paralysis of all four limbs 4=quadriplegic animal in a moribund state.

[9] = system: immobilized heparin / L-selectin/IgG; test: Assay 1: direct interaction with heparin, pre-incubation versus co-incubation with L-selectin; assay type: binding; conditions: compound 0.1-200 μM, 90 min, washed before L-selectin/IgG
Method: Inhibitor Compounds at final concentration 0.1-200 μM were incubated in the ELISA plate for 90 min, and then washed with incubation buffer. After washing, L-selectin/IgG was added to the wells pre-incubated with compounds. At the same time, in separate control wells, L-selectin was co-incubated with inhibitor Compounds for 90 min. Following the incubation, L-selectin bound to the plate was quantified by antibody conjugated to Horse Radish Peroxidase and OD measurement as performed as described in Example 5.

BALB/c mice = test: Thioglycollate-induced leukocyte and neutrophil infiltration into mouse peritoneum; assay type: in vivo; conditions: intraperitoneal, 1 hour before thioglycollate; 3 hours
Method: The ability of compounds of the present invention to reduce leukocyte migration to sites of acute inflammation was evaluated in BALB/c mice using a thioglycolate-induced model of peritonitis. In this animal model, interactions of L- and P-selectin with HS-GAGs have been implicated in neutrophil infiltration (Nelson, R. M., 82:3253-3258, 1993; Xie, X. et al., J. Biol. Chem., 275:34818-34825, 2000).
BALB/c mice (6 weeks old, ˜20 g in weight, 15 mice/group) received intraperitoneal injection of an inhibitor compound in 0.2 ml DMSO/Tween/sterile saline 1 hour before administration of thioglycollate (Sigma). Control groups received vehicle and sham controls received no thioglycollate. Mice were injected intraperitoneally with 1 ml of 3% thioglycollate broth (Xie, X. et al., J. Biol. Chem., 275, 34818-34825, 2000). Mice were sacrificed after 3 hours, and the peritoneal cavities were ravaged with […] of ice-cold saline containing 2 mM EDTA to prevent clotting. After red blood cell lysis, leukocytes were counted in a hemocytometer. Neutrophils were counted after staining with Türck. Data was expressed as mean±SEM, and statistical analysis was performed by Student t test. A value of P<0.05 was taken to denote statistical significance.

IC50 (L-Selectin) [µM]	level of inhibition of L-selectin binding to heparin, pre-incubation versus co-incubation [9]	SMILES	growth inhibited to [1] [%]	growth inhibited to [2] [%]	growth inhibited to [3] [%]	growth inhibited to [4] [%]	growth inhibited to [5] [%]	inhibition at 25 µM [6] [%]	% rolling [6] [%]	cell death [7]	inhibition at 0.1 µM (SF-268 (glioma)) [%]	inhibition at 0.1 µM (MCF7 (Breast carcinoma)) [%]	inhibition at 0.1 µM [8] [%]	colonic damage (score 0 to 10), in words (Mice; IP once per day for 7 days, 10 and 35 mg/kg)	colonic damage (score 0 to 10), in words (Mice; per os once a day for 7 days, 3, 50 and 100 mg/kg)	clinical signs of EAE (in words) (Lewis rats)	leukocyte migration into the peritoneal cavity (in words) (BALB/c mice)
13	–	CC(C)N1CCc2c(sc(NC(=O)c3ccc(S(=O)(=O)N4CCc5ccccc5C4)cc3)c2C(N)=O)C1 [Compound 1, 2-[[(4-(3,4-dihydro-2(1H)-isoquinolinyl)sulfonyl]benzoyl]amino]-6-(1-methylethyl)-4,5,6,7-tetrahydrothieno[2,3-c]pyridine-3-carboxamide]	100	100	93	100	100	90	30	less than 15%	99	99	100	–	–	–	–
0.35	same level of inhibition	CCN1CCc2c(sc(NC(=O)c3ccc(S(=O)(=O)N(CC)CC)cc3)c2-c2nc3ccccc3s2)C1 [Compound 11, 2-[[4-[(diethylamino)sulfonyl]benzoyl]amino]-3-(benzothiazol-2-yl)-6-ethyl-4,5,6,7-tetrahydrothieno[2,3-c]pyridine]	–	–	–	–	–	90	<10	–	–	–	–	significantly inhibited	significantly inhibited	significantly inhibited	inhibited efficiently
